Experimental data published in US4637901A, “N-(alpha-haloacyl)-N-hydrocarbyl carbamoyl halides” (priority 1985, dated 1987).
≈ marks a conversion by molar mass, not a printed value.

Columns and labels:
Type in all cases: in vivo
[1] = system: certain mites and insects including the Bean Aphid, Southern Army Worm, Mexican Bean Beetle and house fly; test: Pesticidal activity against certain mites and insects (overall comparison); conditions: for activity in words (comparison as set forth in Table I): prior art derivatives compared with derivatives of the invention
Experimental: A comparision of an oxime derivative of the novel compounds of this invention was evaluated to determine its pesticidal activity against certain mites and insects including the Bean Aphid, Southern Army Worm, Mexican Bean Beetle and house fly. The oxime derivative was also compared with typical derivative of this oxime as disclosed in British Pat. No. 1,226,450.
(§1) Suspensions of the test compounds were prepared by dissolving one gram of compound in 50 milliliters of acetone in which had been dissolved 0.1 gram (10 percent of the weight of compound) of an alkylphenoxy polyethoxyethanol surfactant, as an emulsifying or dispersing agent. The resulting solution was mixed into 150 milliliters of water to give roughly 200 milliliters of a suspension containing the compound in finely divided form. The thus-prepared stock suspension contained 0.5 percent by weight of compound.
(§2) Certain of the test compounds were also prepared by dissolving 375 mg of compound in 7.5 ml of dimethylformamide. Fifteen ml of acetone containing 37.5 mg (10 percent of the weight of test compound) of an alkylphenoxy polyethoxyethanol surfactant, as a wetting/emulsifying/dispersing agent was added to the dimethylformamide solution. Fifty-two and a half ml of water was mixed into the dimethylformamide-acetone mixture to give roughly 75 ml of a suspension containing the compound in solution or in finely divided form. The thus prepared stock suspension contained 0.5 percent by weight of compound. The test concentrations in parts per million by weight employed in the tests described hereinbelow were obtained by appropriate dilutions of the stock suspension with water.

[2] = system: Mexican Bean Beetle (Epilachna varivestis, Muls.) larvae; test: Mexican Bean Beetle Leaf Spray Test; conditions: 120 h, five days, read-out: Biological activity (LD50 in ppm), Mexican Bean Beetle
Experimental: as §1
as §2, with “water. The test procedures were as follows:” for “water.”
Mexican Bean Beetle Leaf Spray Test
Fourth instar larvae of the Mexican bean beetle (Epilachna varivestis, Muls.), reared on Tendergreen bean plants at a temperature of 80°±5° F. and 50±5 percent relative humidity, were the test insects.
For certain of the tests second instar larvae (weighing about 6 mg) of the Mexican bean beetle (Epilachna varvestis, Muls), reared on Seiva Pole lima bean plants at a temperature of 80°±5° F. and […] relative humidity, were the test insects.
The test compounds were formulated by diluting the stock suspension with water to give a suspension containing 500 parts of test compound per million parts of final formulation. […]

[3] = system: Bean Aphid (Aphis fabae Scop.); test: Bean Aphid Foliage Spray Test; conditions: foliar, potted dwarf nasturtium plants, 24 hour holding period, read-out: Biological activity (LD50 in ppm), Bean Aphid
Experimental: as §1
as §2, with “water. The test procedures were as follows:” for “water.”
Bean Aphid Foliage Spray Test
Adults and nymphal stages of the bean aphid (Aphis fabae Scop.) reared on potted dwarf nasturtrium plants at 68°-70° F. and 50±5 percent relative humidity, constituted the test insects. For testing purposes, the number of aphids per pot was standardized to 100-150 by trimming plants containing excess aphids. […]
The potted plants (one pot per compound tested) infested with 100-150 aphids were placed on a revolving turntable and sprayed with 100-110 milliliters of test compound formulation by use of a DeVilbiss spray gun set at 40 psig air pressure. […] Percent mortality was recorded for various concentration levels.

[4] = system: House Fly (Musca domestica, L.); test: Fly Bait Test; conditions: 24 h, adult flies, sugar bait, twenty-four hours, read-out: Biological activity (LD50 in ppm), House Fly
Experimental: as §1
as §2, with “water. The test procedures were as follows:” for “water.”
Four to six day old adult house flies (Musca domestica, L.), reared according to the specifications of the Chemical Specialties Manufacturing Association (Blue Book, McNair-Dorland Co., N.Y. 1954; pages 243-244, 261) under controlled conditions of 80°±5° F. and 50±5 percent relative humidity, were the test insects. The flies were immobilized by anesthetizing with carbon dioxide and twenty-five immobilized individuals, males and females, were transferred to a cage consisting of a standard food strainer about five inches in diameter which was inverted over a wrapping-paper-covered surface. […]

[5] = system: Southern Armyworm (Spodoptera eridania, (Cram.)) larvae; test: Southern Armyworm Leaf Spray Bait Test; conditions: 120 h, five days, read-out: Biological activity (LD50 in ppm), Southern Army Worm
Experimental: as §1
as §2, with “water. The test procedures were as follows:” for “water.”
Southern Armyworm Leaf Spray Bait Test
Larvae of the southern armyworm (Spodoptera eridania, (Cram.)), reared on Tendergreen bean plants at a temperature of 80°±5° F. and a relative humidity of 50±5 percent, constituted the test insects.
The test compounds were formulated by diluting the stock suspension with water to give a suspension containing 500 parts of test compound per million parts of final formulation. Potted Tendergreen bean plants of standard height and age were placed on a revolving turntable and sprayed with 100-110 milliliters of test compound formulation by use of a DeVilbiss spray gun set at 40 psig air pressure. This application, which lasted 25 seconds, was sufficient to wet plants to run-off. […] Percent mortality was recorded for various concentration levels.

COC(=O)Nc1ccc(OC(=O)N(C)C(=O)C[N+](C)(C)C)cc1C(C)C
pesticidal properties (in words) ([1]; trimethyl amine salt of the N-haloacylcarbamate): excellent pesticidal properties

CSC(C)=NOC(=O)N(C)C(=O)CCl [(XII)]
LC50 [2]: 35 mg/L (≈ 147 µM) | LC50 [3]: 16 mg/L (≈ 67 µM) | LC50 [4]: 6 mg/L (≈ 25.1 µM) | LC50 [5]: 20 mg/L (≈ 83.8 µM)

CSC(C)=NOC(=O)N(C)C(=O)CCCCl [(XIVa)]
activity in words (comparison as set forth in Table I) [1]: less active or inactive | LC50 [2]: 310 mg/L (≈ 1160 µM) | LC50 [3]: 37 mg/L (≈ 139 µM) | LC50 [4]: 25 mg/L (≈ 93.7 µM) | LC50 [5]: 310 mg/L (≈ 1160 µM)

CCC(=O)N(C)C(=O)ON=C(C)SC [(XIVb)]
activity in words (comparison as set forth in Table I) [1]: less active or inactive | LC50 [2]: 200 mg/L (≈ 916 µM) | LC50 [3]: 500 mg/L (≈ 2290 µM) | LC50 [4]: 500 mg/L (≈ 2290 µM) | LC50 [5]: 60 mg/L (≈ 275 µM)
